{"source": "patent US20190041401A1", "about": "“Methods of Treating Subjects having Severe and/or Persistent Asthma” (National Jewish Health, priority 2015, published 2019)", "key": {"[1]": {"test_system": "human lung epithelial cell line A549", "assay": "IL-33 mRNA induction in A549 cells (real-time PCR)", "format": "cell-based", "settings": "cytokine treatment for 72 hours, normalized to GAPDH", "description": "(§1) FIGS. 18A-18J show the role of IL-33 in the persistence of asthma. FIG. 18A, A549 cells were cultured in medium alone or with IL-33 ([…]), IL-1b (2 ng/mL), IL-4 (10 ng/mL), IL-13 (20 ng/mL), IL-17 (10 ng/mL), TNF (2 ng/mL), IFN-γ (10 ng/mL), or IFN-γ plus TNF (same concentrations) for 72 hours, and then mRNA was analyzed for IL-33 normalized to glyceraldehyde-3-phosphate dehydrogenase (GAPDH). *P<0.05 and **P<0.01. There were 4 to 8 mice per group. FIGS. 18B-18E show the direct effect of IL-33 on airway hyperreactivity, lung ILCs, and autoinduction. […] IN, Intranasal. […] The change in RL with the 25-mg dose of methacholine is shown (n=5 per group). *P<0.05.\nImmediately after flexiVent analysis, lung sections were collected in RIPA buffer (50 mmol/L Tris [pH 7.4], 150 mmol/L NaCl, 1 mmol/L EDTA, 1 mmol/L NaF, 1 mmol/L Na3VO4, and 0.1 mmol/L phenylmethylsulfonyl fluoride) containing protease and phosphatase inhibitors and homogenized. Lysed samples were subjected to 10% SDS-PAGE, transferred to a polyvinylidene difluoride membrane, and then immunoblotted with primary antibodies (IL-33 [R&D Systems], tubulin [H-235], and b-actin [Santa Cruz Biotechnology, Dallas, Tex]). After washing, the membranes were incubated with a horseradish peroxidase-conjugated secondary antibody. After additional washing, the membranes were developed with ECL reagent, as previously described (Gorska et al. 2007). A549 cell culture A549 cells were cultured in RPMI in 10% FBS (HyClone; Thermo Scientific, Waltham, Mass.) and 1% penicillin/streptomycin (Gibco, Carlsbad, Calif.) and maintained at 378C in a humidified 5% CO2 incubator. All cytokines were purchased from PeproTech (Rocky Hill, N.J.). In one experiment cells were treated with medium, IL-1b (2 ng/mL), IL-4 (10 ng/mL), IL-13 (20 ng/mL), IL-17 (10 ng/mL), IL-33 (20 ng/mL), TNF (2 ng/mL), IFN-g (10 ng/mL), and TNF (2 ng/mL) plus IFN-g (10 ng/mL) for 72 hours. Cellular RNA was analyzed for mRNA for IL-33 and IL-33R. In a second experiment cells were pretreated for 24 hours with medium, IL-1b (2 ng/mL), IL-4 (10 ng/mL), IL-13 (20 ng/mL), IL-17 (10 ng/mL), TNF (2 ng/mL), or IFN-g (10 ng/mL) before stimulation for 72 hours with IL-33 (20 ng/mL). Cellular RNAwas analyzed for mRNA for IL-33. In a third experiment cells were treated for 24 hours with DRA (5 μg/mL dust mite, 15 μg/mL ragweed, and 5 μg/mL Aspergillus species). Cellular RNA was analyzed for mRNA for IL-33. In a fourth experiment cells were treated for 24 hours with IL-13 (20 ng/mL) and ATP, and the supernatant was collected and analyzed for IL-33 levels by means of ELISA, according to the manufacturer's instructions (R&D systems). […]"}, "[2]": {"test_system": "A549 cells", "assay": "IL-33 secretion by A549 cells (ELISA)", "format": "cell-based, human", "settings": "IL-13 20 ng/mL and ATP, overnight", "description": "FIG. 27A, Effect of IL-13 on IL-33 secretion. A549 cells were treated overnight with medium or IL-13 (20 ng/mL) and ATP ([…]), and the released IL-33 was measured by using ELISA (n=6). *P=0.04. FIGS. 27B-27E, Direct effect of IL-33 on airway hyperreactivity and lung ILCs. C57Bl/6 mice were treated intranasally for 3 consecutive days with 400 ng per dose of IL-33. Outcome measures were evaluated 15 days after final exposure.\n(§2) Immediately after flexiVent analysis, lung sections were collected in RIPA buffer (50 mmol/L Tris [pH 7.4], 150 mmol/L NaCl, 1 mmol/L EDTA, 1 mmol/L NaF, 1 mmol/L Na3VO4, and 0.1 mmol/L phenylmethylsulfonyl fluoride) containing protease and phosphatase inhibitors and homogenized. Lysed samples were subjected to 10% SDS-PAGE, transferred to a polyvinylidene difluoride membrane, and then immunoblotted with primary antibodies (IL-33 [R&D Systems], tubulin [H-235], and b-actin [Santa Cruz Biotechnology, Dallas, Tex]). […] Cellular RNA was analyzed for mRNA for IL-33 and IL-33R. […] Cellular RNAwas analyzed for mRNA for IL-33. […] Cellular RNA was analyzed for mRNA for IL-33. In a fourth experiment cells were treated for 24 hours with IL-13 (20 ng/mL) and ATP, and the supernatant was collected and analyzed for IL-33 levels by means of ELISA, according to the manufacturer's instructions (R&D systems)."}, "[3]": {"test_system": "A549 cells", "assay": "Cytokine induction of IL-33R mRNA in A549 cells", "format": "cell-based, human", "settings": "cytokine treatment for 72 hours", "description": "as §1\nas §2, with “homogenized.” for “homogenized. Lysed samples were subjected to 10% SDS-PAGE, transferred to a polyvinylidene difluoride membrane, and then immunoblotted with primary antibodies (IL-33 [R&D Systems], tubulin [H-235], and b-actin [Santa Cruz Biotechnology, Dallas, Tex]).”, “systems). […]” for “systems).”"}, "[4]": {"test_system": "A549 cells", "assay": "IL-33 autoinduction in A549 cells after cytokine pretreatment", "format": "cell-based, human", "settings": "pretreated 24 hours with cytokine, then 72 hours with IL-33 (20 ng/mL)", "description": "as §1\nas §2, with “homogenized.” for “homogenized. Lysed samples were subjected to 10% SDS-PAGE, transferred to a polyvinylidene difluoride membrane, and then immunoblotted with primary antibodies (IL-33 [R&D Systems], tubulin [H-235], and b-actin [Santa Cruz Biotechnology, Dallas, Tex]).”, “systems). […]” for “systems).”"}}}
{"substance": "IL-13: cytokine purchased from PeproTech, 20 ng/mL on A549 cells", "values": [{"measurement": "induction of IL-33 mRNA", "setting": "[1]", "result": "most potent inducer of IL-33 mRNA"}, {"measurement": "secretion of IL-33", "setting": "[2]", "result": "stimulated secretion of IL-33"}, {"measurement": "induction of IL-33R mRNA", "setting": "[3]", "result": "strongly induced IL-33R"}, {"measurement": "IL-33 autoinduction after preincubation with cytokine", "setting": "[4]", "result": "synergistically enhanced IL-33 autoinduction"}]}
